Laboratory results taken from patent US11795177B2, “Substituted quinoline analogs as aldehyde dehydrogenase 1A1 (ALDH1A1) inhibitors” (THE UNITED STATES OF AMERICA, AS REPRESENTED BY THE …, priority 2017, dated 2023).
Structures can show the parent of a compound that is named as a salt. Where two headings read alike, the source gives them in different places.

Legend:
ALDH1A1 enzyme = molecular target: T1, ALDH1A1 enzyme (Homo sapiens, UniProt P00352); assay: ALDH1A1 enzymatic assay (in vitro); type: biochemical
T1 sequence (P00352 1-501): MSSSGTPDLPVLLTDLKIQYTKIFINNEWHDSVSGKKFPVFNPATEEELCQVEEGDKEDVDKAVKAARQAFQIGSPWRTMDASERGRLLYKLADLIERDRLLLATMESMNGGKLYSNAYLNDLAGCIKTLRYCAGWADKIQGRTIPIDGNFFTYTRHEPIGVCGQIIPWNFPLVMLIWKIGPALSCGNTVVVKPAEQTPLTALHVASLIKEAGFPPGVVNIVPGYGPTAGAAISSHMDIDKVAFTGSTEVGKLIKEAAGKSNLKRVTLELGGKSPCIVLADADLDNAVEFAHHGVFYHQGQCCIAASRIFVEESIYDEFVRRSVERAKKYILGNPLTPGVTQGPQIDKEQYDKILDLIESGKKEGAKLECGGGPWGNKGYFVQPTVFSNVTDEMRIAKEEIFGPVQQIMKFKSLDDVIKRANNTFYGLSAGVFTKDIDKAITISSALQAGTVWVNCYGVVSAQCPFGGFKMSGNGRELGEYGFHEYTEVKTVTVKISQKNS
Method in brief: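 ALDH1A1 (20 nM final) in 100 mM HEPES pH 7.5, 0.01% Tween 20 was preincubated 15 min at RT with compound (968 pM–57.2 μM final), then started with 1 mM NAD+ and 80 μM propionaldehyde. NADH fluorescence (ex 340/em 450 nm) followed kinetically for 10 min; change normalized to no-inhibitor and no-enzyme controls for percent inhibition and curve fitting.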

MIA PaCa-2 cells = assay: MIA PaCa2 cell-based assay (1,536-well high-content imaging ALDEFLUOR assay); design: species or system human; details: Homo sapiens, 0.5 h, ALDEFLUOR BAAA substrate 500 nM, 30 minutes
Method in brief: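 MIA PaCa-2 cells (1,000/well), plated overnight, given BAAA substrate (500 nM) plus Hoechst 33342 (0.5 nM), then compound (16-point, 1.4 nM–47.8 μM final; 0.5% DMSO). After 30 min at 37° C, ALDH activity imaged by high-content microscopy as BAA-retaining (FITC) cells versus Hoechst-stained nuclei.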

[1] = ALDH1A1 enzyme 20 nM, NAD+ 1 mM, propionaldehyde 80 μM, read-out: ALDH1A1 IC50

CS(=O)(=O)C1CCN(C(=O)c2cnc3ccsc3c2-c2ccc(C3(C#N)CC3)cc2)CC1 [Example 283]
IC50 (ALDH1A1 enzyme; [1]): < 500 nM
IC50 (MIA PaCa-2 cells): < 500 nM

CCNC(=O)N1CCN(C(=O)c2cnc3c(F)cc(F)cc3c2N2CCC3(CC2)OCCO3)CC1 [Example 141, 4-(6,8-difluoro-4-(1,4-dioxa-8-azaspiro[4.5]decan-8-yl)quinoline-3-carbonyl)-N-ethylpiperazine-1-carboxamide]
IC50 (ALDH1A1 enzyme; [1]): < 500 nM
IC50 (MIA PaCa-2 cells): 1000 to 10000 nM

CCNC(=O)N1CCN(C(=O)c2cnc3c(F)c(F)c(F)cc3c2N2CCC(C)(C#N)CC2)CC1 [Example 148, 4-(4-(4-cyano-4-methylpiperidin-1-yl)-6,7,8-trifluoroquinoline-3-carbonyl)-N-ethylpiperazine-1-carboxamide]
IC50 (ALDH1A1 enzyme; [1]): 1000 to 10000 nM
IC50 (MIA PaCa-2 cells): 1000 to 10000 nM

O=C(c1cnc2c(F)c(F)c(F)cc2c1N1CCC2(CC1)OCCO2)N1CCN(C(=O)C2CC2)CC1 [Example 124, (4-(cyclopropanecarbonyl)piperazin-1-yl)(6,7,8-trifluoro-4-(1,4-dioxa-8-azaspiro[4.5]decan-8-yl)quinolin-3-yl)methanone]
IC50 (ALDH1A1 enzyme; [1]): < 500 nM
IC50 (MIA PaCa-2 cells): 1000 to 10000 nM

CCNC(=O)N1CCN(C(=O)c2cnc3ccc(F)cc3c2N2CCC(C)(C#N)CC2)CC1 [Example 89, 4-(4-(4-cyano-4-methylpiperidin-1-yl)-6-fluoroquinoline-3-carbonyl)-N-ethylpiperazine-1-carboxamide]
IC50 (ALDH1A1 enzyme; [1]): < 500 nM
IC50 (MIA PaCa-2 cells): > 10000 nM

O=C(c1cnc2ccc(F)cc2c1N1CCC2(CC1)OCCO2)N1CCOCC1 [Example 58, (6-fluoro-4-(1,4-dioxa-8-azaspiro[4.5]decan-8-yl)quinolin-3-yl)(morpholino)methanone]
IC50 (ALDH1A1 enzyme; [1]): 500 to 1000 nM
IC50 (MIA PaCa-2 cells): > 10000 nM

CCC(=O)N1CCN(C(=O)c2cnc3cc(OC)c(OC)cc3c2N2CCC(C)(C#N)CC2)CC1 [Example 110, 1-(6,7-dimethoxy-3-(4-propionylpiperazine-1-carbonyl)quinolin-4-yl)-4-methylpiperidine-4-carbonitrile]
IC50 (ALDH1A1 enzyme; [1]): < 500 nM
IC50 (MIA PaCa-2 cells): 1000 to 10000 nM

CCS(=O)(=O)N1CCN(C(=O)c2cnc3c(F)cc(F)cc3c2N2CCC(C)(C#N)CC2)CC1 [Example 166, 1-(3-(4-(ethylsulfonyl)piperazine-1-carbonyl)-6,8-difluoroquinolin-4-yl)-4-methylpiperidine-4-carbonitrile]
IC50 (ALDH1A1 enzyme; [1]): < 500 nM
IC50 (MIA PaCa-2 cells): 1000 to 10000 nM

CC(O)C1(c2ccccc2)CCN(c2c(C(=O)N3CCN(S(C)(=O)=O)CC3)cnc3ccc(F)cc23)CC1 (stereo not drawn) [Example 253, (6-fluoro-4-(4-(1-hydroxyethyl)-4-phenylpiperidin-1-yl)quinolin-3-yl)(4-(methylsulfonyl)piperazin-1-yl)methanone]
IC50 (ALDH1A1 enzyme; [1]): < 500 nM
IC50 (MIA PaCa-2 cells): > 10000 nM

CS(=O)(=O)N1CCN(C(=O)c2cnc3ccc(F)cc3c2N2CCN(S(C)(=O)=O)CC2)CC1 [Cpd. 307, (6-fluoro-4-(4-(methylsulfonyl)piperazin-1-yl)quinolin-3-yl)(4-(methylsulfonyl)piperazin-1-yl)methanone]
IC50 (ALDH1A1 enzyme; [1]): 1000 to 10000 nM
IC50 (MIA PaCa-2 cells): > 10000 nM

COc1ccc2ncc(C(=O)N3CCN(C(C)C)CC3)c(N3CCC4(CC3)OCCO4)c2c1 [Example 8, (4-isopropylpiperazin-1-yl)(6-methoxy-4-(1,4-dioxa-8-azaspiro[4.5]decan-8-yl)quinolin-3-yl)methanone, TFA]
IC50 (ALDH1A1 enzyme; [1]): 1000 to 10000 nM
IC50 (MIA PaCa-2 cells): > 10000 nM

CN(C)C(=O)N1CCN(C(=O)c2cnc3cc(F)c(F)cc3c2N2CCC3(CC2)OCCO3)CC1 [Example 181, 4-(6,7-difluoro-4-(1,4-dioxa-8-azaspiro[4.5]decan-8-yl)quinoline-3-carbonyl)-N,N-dimethylpiperazine-1-carboxamide]
IC50 (ALDH1A1 enzyme; [1]): < 500 nM
IC50 (MIA PaCa-2 cells): 1000 to 10000 nM

N#CC1(c2ccccc2)CCN(c2c(C(=O)N3CC(O)C3)cnc3ccc(F)cc23)CC1 [Cpd. 326, 1-(6-fluoro-3-(3-hydroxyazetidine-1-carbonyl)quinolin-4-yl)-4-phenylpiperidine-4-carbonitrile]
IC50 (ALDH1A1 enzyme; [1]): < 500 nM
IC50 (MIA PaCa-2 cells): 1000 to 10000 nM

CC1(C#N)CCN(c2c(C(=O)N3CCN(C(=O)C4CC4)C4(CC4)C3)cnc3ccc(F)cc23)CC1 [Example 232, 1-(3-(4-(cyclopropanecarbonyl)-4,7-diazaspiro[2.5]octane-7-carbonyl)-6-fluoroquinolin-4-yl)-4-methylpiperidine-4-carbonitrile]
IC50 (ALDH1A1 enzyme; [1]): < 500 nM
IC50 (MIA PaCa-2 cells): 1000 to 10000 nM

COc1ccc2ncc(C(=O)N3CCN(C(=O)C4CC4)CC3)c(N3CCC(C)(C)CC3)c2c1 [Example 18, (4-(cyclopropanecarbonyl)piperazin-1-yl)(4-(4,4-dimethylpiperidin-1-yl)-6-methoxyquinolin-3-yl)methanone, TFA]
IC50 (ALDH1A1 enzyme; [1]): < 500 nM
IC50 (MIA PaCa-2 cells): 1000 to 10000 nM

COc1ccc2ncc(C(=O)N3CCC4(CC3)OCCO4)c(N3CCC4(CC3)OCCO4)c2c1 [Example 37, (6-methoxy-4-(1,4-dioxa-8-azaspiro[4.5]decan-8-yl)quinolin-3-yl)(1,4-dioxa-8-azaspiro[4.5]decan-8-yl)methanone]
IC50 (ALDH1A1 enzyme): < 500 nM
IC50 (MIA PaCa-2 cells): 500 to 1000 nM

COc1ccc2ncc(C(=O)N3CCS(=O)(=O)CC3)c(N3CCC4(CC3)OCCO4)c2c1 [Example 36, (1,1-dioxidothiomorpholino)(6-methoxy-4-(1,4-dioxa-8-azaspiro[4.5]decan-8-yl)quinolin-3-yl)methanone]
IC50 (ALDH1A1 enzyme; [1]): < 500 nM
IC50 (MIA PaCa-2 cells): > 10000 nM

CN(C)C(=O)Cn1cc(NC(=O)c2cnc3ccc(F)cc3c2N2CCC(C#N)(c3ccccc3)CC2)cn1 [Cpd. 339, 4-(4-cyano-4-phenylpiperidin-1-yl)-N-(1-(2-(dimethylamino)-2-oxoethyl)-1H-pyrazol-4-yl)-6-fluoroquinoline-3-carboxamide]
IC50 (ALDH1A1 enzyme; [1]): < 500 nM
IC50 (MIA PaCa-2 cells): < 500 nM

CN(C)C(=O)N1CCN(C(=O)c2cnc3ccsc3c2N2CCC(C#N)(c3ccccc3)CC2)CC1 [Example 289, 4-(7-(4-cyano-4-phenylpiperidin-1-yl)thieno[3,2-b]pyridine-6-carbonyl)-N,N-dimethylpiperazine-1-carboxamide]
IC50 (ALDH1A1 enzyme; [1]): < 500 nM
IC50 (MIA PaCa-2 cells): < 500 nM

CS(=O)(=O)N1CCN(C(=O)c2cnc3c(F)cc(F)cc3c2N2CCC3(CC2)OCCO3)CC1 [Example 131, (6,8-difluoro-4-(1,4-dioxa-8-azaspiro[4.5]decan-8-yl)quinolin-3-yl)(4-(methylsulfonyl)piperazin-1-yl)methanone]
IC50 (ALDH1A1 enzyme; [1]): < 500 nM
IC50 (MIA PaCa-2 cells): 1000 to 10000 nM

CC(=O)C1(c2ccccc2)CCN(c2c(C(=O)N3CCN(S(=O)(=O)N(C)C)CC3)cnc3ccc(F)cc23)CC1 [Example 268, 4-(4-(4-acetyl-4-phenylpiperidin-1-yl)-6-fluoroquinoline-3-carbonyl)-N,N-dimethylpiperazine-1-sulfonamide]
IC50 (ALDH1A1 enzyme; [1]): < 500 nM
IC50 (MIA PaCa-2 cells): < 500 nM

CC1(C#N)CCN(c2c(C(=O)N3CCN(C(=O)C4CC4)CC3)cnc3[nH]ncc23)CC1 [Example 237, 1-(5-(4-(cyclopropanecarbonyl)piperazine-1-carbonyl)-1H-pyrazolo[3,4-b]pyridin-4-yl)-4-methylpiperidine-4-carbonitrile]
IC50 (ALDH1A1 enzyme; [1]): 1000 to 10000 nM
IC50 (MIA PaCa-2 cells): > 10000 nM

COc1ccc2ncc(C(=O)N3CCN(C(=O)C4CC4)CC3)c(N3CCC(C)(C#N)CC3)c2c1 [Example 27, 1-(3-(4-(cyclopropanecarbonyl)piperazine-1-carbonyl)-6-methoxyquinolin-4-yl)-4-methylpiperidine-4-carbonitrile]
IC50 (ALDH1A1 enzyme; [1]): < 500 nM
IC50 (MIA PaCa-2 cells): 1000 to 10000 nM

CS(=O)(=O)N1CCN(C(=O)c2cnc3ccc(F)cc3c2N2CCN(S(=O)(=O)C3CC3)CC2)CC1 [Example 252, (4-(4-(cyclopropylsulfonyl)piperazin-1-yl)-6-fluoroquinolin-3-yl)(4-(methylsulfonyl)piperazin-1-yl)methanone]
IC50 (ALDH1A1 enzyme; [1]): < 500 nM
IC50 (MIA PaCa-2 cells): > 10000 nM

CCNC(=O)N1CCN(C(=O)c2cnc3ccc(OC)cc3c2N2CCC3(CC2)OCCO3)CC1 [Example 43, N-ethyl-4-(6-methoxy-4-(1,4-dioxa-8-azaspiro[4.5]decan-8-yl)quinoline-3-carbonyl)piperazine-1-carboxamide]
IC50 (ALDH1A1 enzyme; [1]): < 500 nM
IC50 (MIA PaCa-2 cells): 1000 to 10000 nM

O=C(c1cnc2ccc(F)cc2c1N1CCC(O)(c2ccccc2)CC1)N1CCN(C(=O)C2CC2)CC1 [Example 291, (4-(cyclopropanecarbonyl)piperazin-1-yl)(6-fluoro-4-(4-hydroxy-4-phenylpiperidin-1-yl)quinolin-3-yl)methanone]
IC50 (ALDH1A1 enzyme; [1]): < 500 nM
IC50 (MIA PaCa-2 cells): > 10000 nM

CCC(=O)N1CCN(C(=O)c2cnc3ccc(OC)cc3c2N2CCC3(CC2)OCCO3)CC1 [Example 6, 1-(4-(6-methoxy-4-(1,4-dioxa-8-azaspiro[4.5]decan-8-yl)quinoline-3-carbonyl)piperazin-1-yl)propan-1-one, TFA]
IC50 (ALDH1A1 enzyme; [1]): < 500 nM
IC50 (MIA PaCa-2 cells): 1000 to 10000 nM
